Data: patent US9427437B2, “Hypercholesterolemia and tendinous injuries” (The Trustees of the University of Pennsylvania, priority 2008, dated 2016)

What was measured:
[1] = system: partial rupture of achilles tendon; assay: Patient case: oral rosuvastatin for a partial rupture of the achilles tendon in a hypercholesterolemic patient; type: in vivo, human; settings: orally 10 mg once daily
Experimental: (§1) A diabetic presents with a partial rupture of their achilles tendon. Their orthopedist orders a standard lipid panel as part of their blood work. The orthopedist finds that the patient is hypercholesterolemic with a total cholesterol of 285 mg/DL. The orthopedist prescribes rosuvastatin to be taken orally at a dose of 10 mg once daily.

[2] = system: partial tear of the patellar tendon; assay: Patient case: oral atorvastatin for a partial tear of the patellar tendon in a hypercholesterolemic patient; type: in vivo, human; settings: orally 20 mg once daily
Experimental: as §1, with “person” for “diabetic”, “tear” for “rupture”, “the patellar” for “their achilles”, “almost 300” for “285”, “atorvastatin” for “rosuvastatin”, “20” for “10”

Structure (SMILES)	cholesterol lowering ([1]; diabetic, total cholesterol 285 mg/DL at presentation)	recovery from partial rupture of achilles tendon ([1]; hypercholesterolemic diabetic)	recovery from partial tear of the patellar tendon ([2]; hypercholesterolemic person)	cholesterol lowering ([2]; person, total cholesterol almost 300 mg/DL at presentation)
CC(C)c1nc(N(C)S(C)(=O)=O)nc(-c2ccc(F)cc2)c1/C=C/[C@@H](O)C[C@@H](O)CC(=O)O [rosuvastatin]	lowering their cholesterol to acceptable levels	markedly improved		
CC(C)c1c(C(=O)Nc2ccccc2)c(-c2ccccc2)c(-c2ccc(F)cc2)n1CC[C@@H](O)C[C@@H](O)CC(=O)O [atorvastatin]			markedly improved	lowering their cholesterol to acceptable levels
